The results in this text go back to US8119614B2, “Substitution derivatives of N6-benzyladenosine, methods of their preparation, their use for preparation of drugs, cosmetic preparations and growth regulators, pharmaceutical preparations, cosmetic preparations and growth regulators containing these compounds” (Ustav Experimentalni Botaniky Akademie Ved Ceske Republiky, priority 2002, dated 2012).

Assay [1] concerns tobacco callus Nicotiana tabacum L. cv. Wisconsin 38. In words: Growth of cytokinin-dependent tobacco callus. The format is cell-based. The conditions noted are these: for Activity (%) [10^−5 mol · l^−1 BAP = 100%]: callus growth, at concentration with highest activity; for Concentration with highest activity: fresh callus weight after four weeks.
A further assay deals with Human lymphocytes. In words: Immunosuppressive activity: concanavalin A induced lymphocyte proliferation, [^3H]-TdR incorporation. The assay is classed as cell-based. The conditions noted are these: 72 hours, read-out: Human lymphocytes ED50. As to the method:
Human heparinized peripheral blood was obtained from healthy volunteers by cubital vein punction. The blood was diluted in PBS (1:3) and mononuclear cells were separated by centrifugation in Ficoll-Hypaque density gradient (Pharmacia, 1.077 g/ml) at 2200 rpm for 30 minutes. Following centrifugation, lymphocytes were washed in PBS and resuspended in cell culture medium (RMPI 1640, 2 mM glutamine, 100 U/ml penicillin, 100 μg/ml streptomycin, 10% fetal calf serum and sodium bicarbonate).
The cells were diluted at target density of 1,100,000 cells/ml were added by pipette (180 μl) into 96/well microtiter plates. Four-fold dilutions of the intended test concentration were added at time zero in 20 μl aliquots to the microtiter plate wells. Usually, test compound was evaluated at six 4-fold dilutions. In routine testing, the highest well concentration was 266.7 μM. All drug concentrations were examined in duplicates. All wells with exception of unstimulated controls were activated with 50 μl of concanavalin A (25 μg/ml). Incubations of cells with test compounds lasted for 72 hours at 37° C., in 5% CO2 atmosphere and 100% humidity. At the end of incubation period, the cells were assayed by using the [^3H]-TdR:
Cell cultures were incubated with 0.5 μCi (20 μl of stock solution 500 μCi/ml) per well for 6 hours at 37° C. and 5% CO2. The automated cell harvester was used to lyse cells in water and adsorb the DNA onto glass-fiber filters in the format of microtiter plate. The DNA incorporated [^3H]-TdR was retained on the filter while unincorporated material passes through. The filters were dried at room temperature overnight, sealed into a sample bag with 10-12 ml of scintillant. The amount of [^3H]-TdR present in each filter (in cpm) was determined by scintillation counting in a Betaplate liquid scintillation counter. The effective dose of immunosuppressant (ED) was calculated using the following equation: ED=(CCPMdrug exposed well/mean CCPMcontrol wells)×100%. The ED50 value, the drug concentration inhibiting proliferation of 50% of lymphocytes, was calculated from the obtained dose response curves.

Assay [2] has as its system human diploid fibroblasts (HCA cells). In words: Inhibition of senescence of mammal cells: β-galactosidase staining of senescent cells. The conditions noted are these: for Senescent cells (%) HCA25: passage 25; for Senescent cells (%) HCA45: passage 45; for Senescent cells (%) HCA80: passage 80. The assay is classed as cell-based. As for the experimental part:
In this example, human diploid fibroblasts (HCA cells with different levels of passage: passage 25—labelling HCA25; passage 45—labelling HCA45; passage 80—labelling HCA80) were used for studying β-galactosidase activity. Medium used for cells cultivation was removed, cells were washed twice with PBS and fixed in 2-3 ml of fixation agent consisting of 2% of formaldehyde and 0.2% of flutaraldehyde in PBS. Cells were incubated at room temperature for 5 min and subsequently washed twice with PBS. Cells were then incubated at 37° C. (without CO2) for 1 to 16 hours in 2-3 ml of solution comprising potassium ferricyanide (5 mM), potassium ferrocyanide (5 mM), MgCl2 (2 mM), X-gal (5-bromo-4-chloro-3-indolyl-β-D-galactopyranoside) (1 mg/ml) in citrate/phosphate buffer, pH 6.0. […] In this experiment only senescent cells were labelled due to the effect of β-galactosidase on the substrate.

Another assay relates to glutamate kinase. In words: Field studies: glutamate kinase activity in spring wheat. The assay is classed as in vivo. The conditions noted are these: 6 days after the application, Control = 100.0. Also on record: tested at 1 µM (10^-6 M spray solution). As to the method:
Height of plants, leaf area, dry matter, development of vegetation opex—bases of future spike, and number of spikelets were monitored after germination in 14 day intervals, […]. From these primary data, values used in production physiology are derived, as leaf area index LAI, photosynthetic capacity LAD, tillering potential. Experiments with treatment of spring wheat crop (variety Sandra) are carried out on the field (area 10 m^2, four replicates) by spraying 1 litr of 10^−6 molar solution of tested compound (cytokinin) at the transition period from jointing stage to athesis stage (49 DC).
Glutamate kinase activity was determined 6 days after the application. This enzyme was selected because of good corelation of its activity changes and state of transport of endogenous substances (nutrients from roots, assimilates to cariopsis), respiration, energy (adenosintriphosphate) transfer, storage of nutrients, growth and developmental proceses, and also metabolism of proline, which is known from literature to play an important role in adaptation against stress (unsuitable stand, drought, hypersalinity, coldness) and also in regulation of both theoretical and real production (restriction of seed number reduction per spikelet). Enzyme glutamate kinase catalyses to glutamate conversion into γ glutamylphosphate, which is first step of proline biosynthesis from glutamate. Therefore, this enzyme is, as essential precursor of other plant metabolic pathways, marker of stress inhibition. It can be determined spectrofotometrically (Vasáková, 1980). For analysis, acetone powder is prepared from a sample by standard method, subsequently extracted by 0.05M potassium-phosphate buffer pH=7.2 and centrifugated. Glutamate kinase fraction is precipitated using crystalline ammonium sulfate and after dialysis, glutamate kinase activity is determined spectrophotometrically. Proline accumulation increased by stress corresponds as a “feedback” to glutamate kinase inhibition.

`OC[C@H]1O[C@@H](n2cnc3c(NCc4ccccc4Cl)ncnc32)[C@H](O)[C@@H]1O` [2-chlorobenzylamino, 6-(2-chlorobenzylamino)purine riboside]: in assay [1], the “Activity (%) [10^−5 mol · l^−1 BAP = 100%]” value (“Activity (%)” below) is recorded as 93 ± 4% and the “Concentration with highest activity” value is on record as 10^−6 mol · l^−1. The EC50 in the assay with Human lymphocytes amounted to 8.4 µM.
As for `OC[C@H]1O[C@@H](n2cnc3c(NCc4ccccc4F)ncnc32)[C@H](O)[C@@H]1O` [2-fluorobenzylamino, 6-(2-fluorobenzylamino)purine riboside], in assay [1], the “Activity (%)” value is 100 ± 9% and the “Concentration with highest activity” value is 10^−6 mol · l^−1. The EC50 in the assay with Human lymphocytes was found to be 5.6 µM. In addition, in assay [2], the “Senescent cells (%) HCA25” value was 4%, the “Senescent cells (%) HCA45” value stood at 4% and the “Senescent cells (%) HCA80” value amounted to 15%.
On to `COc1cccc(CNc2ncnc3c2ncn3[C@@H]2O[C@H](CO)[C@@H](O)[C@H]2O)c1O` [2-hydroxy-3-methoxybenzylamino, 6-(2-hydroxy-3-methoxybenzylamino)purine riboside], for which the EC50 in the assay on Human lymphocytes turned out to be 1.4 µM.
In the case of `COc1ccccc1CNc1ncnc2c1ncn2[C@@H]1O[C@H](CO)[C@@H](O)[C@H]1O` [2-methoxybenzylamino, 6-(2-methoxybenzylamino)purine riboside], in assay [1], the “Activity (%)” value is 108 ± 1% and the “Concentration with highest activity” value is 10^−5 mol · l^−1. In addition, in assay [2], the “Senescent cells (%) HCA25” value was determined as 4%, the “Senescent cells (%) HCA45” value came to 4% and the “Senescent cells (%) HCA80” value was 16%.
As to `Cc1ccccc1CNc1ncnc2c1ncn2[C@@H]1O[C@H](CO)[C@@H](O)[C@H]1O` [2-methylbenzylamino, 6-(2-methylbenzylamino)purine riboside], in assay [1], the “Activity (%)” value was found to be 98 ± 4% and the “Concentration with highest activity” value is on record as 10^−6 mol · l^−1. For the same compound, in the assay with Human lymphocytes, the EC50 came out at 5.8 µM.
For the compound `OC[C@H]1O[C@@H](n2cnc3c(NCc4ccc(Cl)c(Cl)c4)ncnc32)[C@H](O)[C@@H]1O` [3,4-dichlorobenzylamino, 6-(3,4-dichlorobenzylamino)purine riboside], the “GK % (glutamate kinase activity)” value with glutamate kinase worked out at 114.2%.
Take `OC[C@H]1O[C@@H](n2cnc3c(NCc4cccc(Br)c4)ncnc32)[C@H](O)[C@@H]1O` [3-bromobenzylamino, 6-(3-bromobenzylamino)purine riboside]: in assay [1], the “Activity (%)” value is 82 ± 11% and the “Concentration with highest activity” value was 10^−6 mol · l^−1. The “GK % (glutamate kinase activity)” value in the assay with glutamate kinase was 116.6%.
In the case of `OC[C@H]1O[C@@H](n2cnc3c(NCc4cccc(Cl)c4)ncnc32)[C@H](O)[C@@H]1O` [3-chlorobenzylamino, 6-(3-chlorobenzylamino)purine riboside], in assay [1], the “Activity (%)” value was 96 ± 5% and the “Concentration with highest activity” value is recorded as 10^−5 mol · l^−1. In addition, the “GK % (glutamate kinase activity)” value with glutamate kinase was 124.7%. Moreover, the EC50 in the assay on Human lymphocytes was determined as 2.5 µM.
With `OC[C@H]1O[C@@H](n2cnc3c(NCc4cccc(F)c4)ncnc32)[C@H](O)[C@@H]1O` [3-fluorobenzylamino, 6-(3-fluorobenzylamino)purine riboside], in assay [1], the “Activity (%)” value is reported as 91 ± 6% and the “Concentration with highest activity” value is 10^−5 mol · l^−1. Further, in the assay with Human lymphocytes, the EC50 was found to be 7.1 µM. In addition, in assay [2], the “Senescent cells (%) HCA25” value worked out at 3%, the “Senescent cells (%) HCA45” value is on record as 5% and the “Senescent cells (%) HCA80” value was found to be 13%.
Consider `COc1cccc(CNc2ncnc3c2ncn3[C@@H]2O[C@H](CO)[C@@H](O)[C@H]2O)c1` [3-methoxybenzylamino, 6-(3-methoxybenzylamino)purine riboside], for which, in assay [1], the “Activity (%)” value was 92 ± 1% and the “Concentration with highest activity” value was 10^−6 mol · l^−1. Further, in assay [2], the “Senescent cells (%) HCA25” value was 5%, the “Senescent cells (%) HCA45” value is reported as 6% and the “Senescent cells (%) HCA80” value amounted to 12%.
Take `Cc1cccc(CNc2ncnc3c2ncn3[C@@H]2O[C@H](CO)[C@@H](O)[C@H]2O)c1` [3-methylbenzylamino, 6-(3-methylbenzylamino)purine riboside]: in assay [1], the “Activity (%)” value worked out at 90 ± 2% and the “Concentration with highest activity” value is given as 10^−6 mol · l^−1. Also, in the assay with Human lymphocytes, the EC50 was 6.5 µM.
With `OC[C@H]1O[C@@H](n2cnc3c(NCc4ccc(Cl)cc4)ncnc32)[C@H](O)[C@@H]1O` [4-chlorobenzylamino, 6-(4-chlorobenzylamino)purine riboside], in assay [1], the “Activity (%)” value is given as 46 ± 14% and the “Concentration with highest activity” value was 10^−6 mol · l^−1. In the assay with Human lymphocytes, the EC50 stood at 3.9 µM.
For `OC[C@H]1O[C@@H](n2cnc3c(NCc4ccc(F)cc4)ncnc32)[C@H](O)[C@@H]1O` [4-fluorobenzylamino, 6-(4-fluorobenzylamino)purine riboside] the same measures were 100 ± 6%, 10^−6 mol · l^−1 and 9.4 µM.
